Literature values in patent US5231002A, “Synthetic SCM-active cancer recognition peptides” (priority 1990, dated 1993).

How the values were obtained:
[1] = test system: lymphocytes from multiple sclerosis; conditions: lymphocytes from multiple sclerosis patients
[2] = test system: potentially SCM-responding lymphocytes from donors with malignant diseases

In the case of CaBP, the “response in the SCM test (in words)” value [1] is listed as “do not respond”, the “effectiveness as cancer-associated antigen in the SCM test” value ([2]; known cancer-associated antigens) is listed as “effective in the SCM test” and the “time until response of lymphocytes is lost after surgical removal of malignancy” value ([2]; malignancies of breast or colon surgically removed) is listed as at most 24 h.
